US8785388B2, “TAT-BH3 methods for treating arthritis” (Saint Louis University, priority 2007, dated 2014)
Square brackets hold non-standard residues; d marks the D form. Peptide text beside a SMILES is read from it. Orn = NCCC[C@H](N)C(=O)O

Key:
[1] = system: K/B×N serum transfer-induced arthritis; test: K/B×N serum transfer-induced arthritis, ankle circumference (joint swelling); format: in vivo, mice; conditions: for reduction of development of arthritis: day 4
Source text: The seven-week-old progeny from homozygous KRN TCR transgenic mice (C57BL/6 background) crossed with non-obese diabetes (NOD) mice (K/B×N) were euthanized, peripheral blood was isolated, and serum were collected and pooled. One hundred and fifty microliters of K/B×N serum were intraperitoneally injected on each flank of 6-week old wt mice.
(§1) At each time point and prior to euthanasia, the degree of arthritis as indicated by joint swelling was quantitated by measuring two perpendicular diameters of the ankles using a caliper (Lange Caliper: Cambridge Scientific Industries, Cambridge Mass.). Joint circumference was calculated using the geometric formula of ellipse circumference (2πX √(a^2+b^2)/2). Following euthanasia, serum was isolated from peripheral blood by cardiac stick and ankle joints were removed. One of the ankle joints was fixed in 10% neutral buffered formalin for 24 hours, decalcified in EDTA-decalcification buffer for two weeks, embedded in paraffin, and sectioned. The other ankle joint was placed in liquid nitrogen, grounded into a fine powder by mortal and pestle, digested in protein lysis buffer ([…], 0.5% NP-40, 50 mM Tris, and 2 mM EDTA) in the presence of phosphatase and protease inhibitors, and homogenized on ice for 20 seconds. To examine any toxicity due to systemic delivery of TAT-Bim peptides, alkaline phosphatase (ALP), […] (AST), alanine aminotransferase (ALT), and blood urea nitrogen levels were measured.
Therefore, peptides to the BH3 domain of Bim were used that are fused to polycationic peptide derived from HIV-1 TAT. These peptides have shown to activate Bak and Bax, suppress Bcl-2 and Mcl-1, induce mitochondrial permeability, and release mitochondrial cytochrome c. Mice were intraperitoneally injected with K/B×N serum to induce the effector phase of inflammatory arthritis.

[2] = Toxicity: serum ALP, AST, ALT, blood urea nitrogen and liver histology in arthritic mice; format: in vivo
Procedure: as §1
Paraffin embedded ankle or liver sections were stained with hematoxylin and eosin (H&E), Safranin O and methyl green. Histopathological scoring was performed and ankle sections were evaluated by examining at least 3 sections/ankle and 3 fields/section at 400× magnification. H&E ankle sections were scored on a 0-5 scale for inflammation, with 0=normal, 1=minimal infiltration, 2=mild infiltration, 3=moderate infiltration, […], mad 5=severe infiltration. Bone erosion was scored on a 0-5 scale by viewing H&E ankle sections, with 0=no or normal bone resorption, 1=small areas of resorption, 2=more numerous areas of resorption, 3=obvious resorption, 4=full thickness defects in the bone without distortion of the profile, 5=full thickness defects in the bone with distortion of the profile. H&E ankle stained sections were scored on a 0-5 scale for pannus formation, with 0=no pannus formation, 1=minimal pannus formation, 2=mild pannus formation, 3=moderate pannus formation, 4=marked pannus formation, and 5=severe pannus formation. H&E and Safranin 0 and methyl green sections were scored on a 0-5 scale for cartilage damage, with 0=no damage, 1-2=superficial cartilage destruction, 3-4=cartilage destruction to middle zone, 5=cartilage destruction to tide mark. Polymorphonuclear (PMN) leukocyte infiltration: 0=no PMNs, 1=rare scattered PMNs, 2=more frequent scattered PMNs, 3=small clusters of PMNs, 4=larger clusters of PMNs, mad 5=sheets of PMNs (abscess). Histopathological scoring was conducted on an Olympus BX40 microscope (1000×). Photographs were taken on a Nikon microscope equipped with the Nikon digital camera DMX 1200.

[3] = system: IL-1β, TNFα, MCP-1, KC, MMP-3; test: ELISA of pro-inflammatory molecules in ankle extracts; format: in vivo, mouse; design: IL-1β / TNFα / MCP-1 / KC / MMP-3: unit not given here; conditions: ankle joints
Procedure: as §1
For detection of mouse IL-1β, TNFα, MCP-1, KC, or MMP-3 in ankle extracts, sandwich ELISAs were performed according to the manufacturer's instructions (R & D Systems, Minneapolis, Minn.). The sensitivity for all cytokines was 15.6 pg/mL for IL-1β and KC, 7.813 pg/mL for TNFα and MCP-1, and 0.312 ng/mL for MMP3. ELISAs were quantitated by absorbance at 450 nm on a microplate reader (BioRad, Hercules, Calif.). Data obtained using ELISA on ankle extracts were normalized by the total protein concentration (μg/μL) for each individual ankle extract.
Mice were euthanized at seven days post-serum transfer. Ankle joints from each mouse were isolated, snap frozen, grounded into a fine powder, lysed, and examined for IL-1β, TNFα, MCP-1, KC, and MMP-3 production using an ELISA. Data are shown as μg/μL per joint. Values represent the mean±standard error, which were compared by Student's t-test.

IL-1β, TNFα, MCP-1, KC = test: Circulating cytokine levels in serum; format: in vivo, mice; conditions: between saline, TAT-inactive BH3 and TAT-BH3 groups
Procedure: as §1
TAT-BH3 peptides treatment reduces the numbers of myeloid cells in arthritic joints. […] To this end, the numbers of polymorphonuclear cell and macrophages in saline and BH3 peptide arthritic mice were quantified. […]

[4] = system: mature neutrophils in bone marrow; test: Bone marrow neutrophil numbers (flow cytometry); format: in vivo, mice; conditions: as compared to saline and TAT-inactive BH3
Procedure: Peripheral blood and bone marrow were isolated from mice following euthanasia. Total leukocyte numbers were determined using an automated hematology analyzer ABX Pentra 60 (Diamond Diagnostics, Inc, Holliston, Mass.). The red blood cells in peripheral blood were lysed and the remaining cells were fixed with BD FACS lysing solution (BD Biosciences, Pharmingen) following incubation with antibodies. Bone marrow cells were isolated by flushing Dulbecco's Modified Eagle Medium (DMEM) (Gibco, Grand Island, N.Y.) through the tibias and red blood cells were lysed with BD PharM Lyse (BD Biosciences, Pharmingen) prior to incubation with antibodies. Cells with incubated with Fc Block (BD Biosciences, Pharmingen) then stained with fluorochrome conjugated antibodies to CD45, CD11b, Gr-1, CD62L, Ly-6C, Ly-6G, CD31 (BD Biosciences, Pharmingen) or isotype control antibodies for 30 minutes. Cells were acquired on a BD LSRII (BD Biosciences, Pharmingen) using Diva Software at the Saint Louis University Core Flow Cytometry Facility. All analysis was performed using FlowJo software (Tree Star Inc.).
TAT-BH3 peptides decrease the number of neutrophils in circulation and in bone marrow. We have shown that numbers of neutrophils and macrophages are reduced in the joints of mice treated with TAT-BH3 peptides.

[5] = TAT-BH3 vs TAT-inactive BH3 and saline
[6] = as compared to TAT-inactive BH3
[7] = seven days post-serum transfer, mean ± standard error

For `CC[C@H](C)[C@H](NC(=O)[C@H](CCCNC(=N)N)NC(=O)[C@H](CCCNC(=N)N)NC(=O)[C@H](CC(C)C)NC(=O)[C@H](CCC(=O)O)NC(=O)[C@H](CCC(N)=O)NC(=O)[C@H](C)NC(=O)[C@@H](NC(=O)[C@H](Cc1c[nH]c2ccccc12)NC(=O)[C@@H](NC(=O)[C@H](CCC(=O)O)NC(=O)[C@H](CCCNC(=N)N)NC(=O)[C@H](CCCNC(=N)N)NC(=O)[C@H](CCCNC(=N)N)NC(=O)[C@H](CCCN)NC(=O)[C@H](CCCNC(=N)N)NC(=O)[C@H](CCCNC(=N)N)NC(=O)[C@H](CCCCN)NC(=O)[C@H](CCCCN)NC(=O)[C@H](CCCNC(=N)N)NC(C)=O)[C@@H](C)CC)[C@@H](C)CC)C(=O)NCC(=O)N[C@@H](CC(=O)O)C(=O)N[C@@H](CCC(=O)O)C(=O)N[C@@H](Cc1ccccc1)C(=O)N[C@@H](CC(N)=O)C(=O)N[C@@H](C)C(=O)N[C@@H](Cc1ccc(O)cc1)C(=O)N[C@@H](Cc1ccc(O)cc1)C(=O)N[C@@H](C)C(=O)N[C@@H](CCCNC(=N)N)C(=O)O` [TAT-BH3] (Ac-RKKRR[Orn]RRREIWIAQELRRIGDEFNAYYAR-OH), the “change in ankle circumference” value ([1]; day 2 after K/B×N serum, 2 mg/kg i.p.) was 0.1 mm, the “reduction of development of arthritis” value ([1]; as compared to TAT-inactive BH3 peptide) was 72% and the “reduction of development of arthritis” value ([1]; as compared to saline) was 80%. The ALT levels [2, 5] was “statistical difference”, the BUN levels [2, 5] was “statistical difference” and the “increase in ALP levels” value [2, 6] was 1.7 fold. The “increase in AST levels” value [2, 6] was 1.5 fold, the “increase in ALP levels” value ([2]; as compared to saline) was 1.4 fold and the “increase in AST levels” value ([2]; as compared to saline) was 1.3 fold. The liver histology ([2]; liver sections of arthritic mice) was “no gross histologic abnormalities”, the IL-1β [3, 7] was 522 ± 127 and the KC [3, 7] was 308 ± 78. It also gave an MCP-1 [3, 7] of 131 ± 28, an MMP-3 [3, 7] of 9 ± 3 and a TNFα [3, 7] of 4.5 ± 0.3. For the same compound, the “change in level of TNFα” value ([3]; vs saline or TAT-inactive BH3) was “no change”, the “decrease in level of IL-1β” value ([3]; vs saline or TAT-inactive BH3) was 37% and the “levels of MMP-3 reduced” value ([3]; vs saline or TAT-inactive BH3) was 47%. The “production of KC diminished” value ([3]; vs saline or TAT-inactive BH3) was 28%, the “production of MCP-1 diminished” value ([3]; vs saline or TAT-inactive BH3) was 47% and the “circulating levels of IL-1β, TNFα, MCP-1, and KC in serum” value (IL-1β, TNFα, MCP-1, KC) was “no differences”. For the same compound, the “decrease in numbers of mature neutrophils in bone marrow” value [4] was 50%.
